How the values were obtained:
[1] = tested on: DU-145; assay: Cytotoxicity against human DU-145 cells assessed as reduction in cell viability; assay type: functional, cell-based
[2] = target: T1, Histone deacetylase 1 (Homo sapiens, UniProt Q13547); assay: Inhibition of HDAC1 (unknown origin)
[3] = tested on: MCF7; assay: Cytotoxicity against human MCF7 cells assessed as reduction in cell viability; assay type: functional, cell-based
[4] = target: Histone deacetylase; assay: Inhibition of HDAC (unknown origin); assay type: protein assay, Homo sapiens
[5] = tested on: THP-1; assay: Growth inhibition of human THP-1 cells; assay type: functional
[6] = tested on: MCF7; assay: Cytotoxicity against human MCF7 cells assessed as reduction in cell viability by MTT assay; assay type: functional, cell-based
[7] = target: Vascular endothelial growth factor receptor 2 (Homo sapiens, UniProt P35968); assay: Inhibition of VGFR2 (unknown origin)
[8] = target: T2, Bromodomain-containing protein 4 (Homo sapiens, UniProt O60885); assay: Inhibition of BRD4 (unknown origin)
[9] = tested on: A-431; assay: Cytotoxicity against human A-431 cells assessed as reduction in cell viability by MTT assay; assay type: functional, cell-based
[10] = tested on: MCF7; assay: Cytotoxicity against human MCF7 cells assessed as reduction in cell viability in presence of SAHA by MTT assay; assay type: functional, cell-based
[11] = tested on: A549; assay: Cytotoxicity against human A549 cells assessed as reduction in cell viability by MTT assay
[12] = tested on: OCI-AML2; assay: Antiproliferative activity against human OCI-AML2 cells by MTT assay; assay type: functional, cell-based
[13] = tested on: OCI-AML-3; assay: Antiproliferative activity against human OCI-AML-3 cells by MTT assay; assay type: functional, cell-based
[14] = target: T2, Bromodomain-containing protein 4; assay: Inhibition of BRD4 BD2 domain (unknown origin)
[15] = tested on: MV4-11; assay: Antiproliferative activity against human MV4-11 cells by MTT assay; assay type: functional, cell-based
[16] = target: Histone deacetylase 3 (Homo sapiens, UniProt O15379); assay: Inhibition of recombinant human HDAC3 expressed in baculovirus expression system using Ac-Lys-Tyr-Lys (epsilon-acetyl)-AMC as substrate after 24 hrs by fluorescence assay
[17] = target: T1, Histone deacetylase 1; assay: Inhibition of recombinant human HDAC1 expressed in baculovirus expression system using Ac-Lys-Tyr-Lys (epsilon-acetyl)-AMC as substrate after 24 hrs by fluorescence assay
[18] = target: Epidermal growth factor receptor (Homo sapiens, UniProt P00533); assay: Inhibition of GST-tagged EGFR (unknown origin) at 10 ug/ml using biotinylated peptide as substrate in presence of ATP relative to control; details: dose 10.0 µg/ml
[19] = target: Protein deacetylase HDAC6 (Homo sapiens, UniProt Q9UBN7); assay: Inhibition of recombinant human HDAC6 expressed in baculovirus expression system using Ac-Lys-Tyr-Lys (epsilon-acetyl)-AMC as substrate after 24 hrs by fluorescence assay
[20] = target: Receptor tyrosine-protein kinase erbB-2 (Homo sapiens) (UniProt P04626); assay: Inhibition of HER2 (unknown origin) at 10 ug/ml using biotinylated peptide as substrate in presence of ATP relative to control; details: dose 10.0 µg/ml
Chain of Receptor tyrosine-protein kinase erbB-2 (Homo sapiens) (P04626 whole entry): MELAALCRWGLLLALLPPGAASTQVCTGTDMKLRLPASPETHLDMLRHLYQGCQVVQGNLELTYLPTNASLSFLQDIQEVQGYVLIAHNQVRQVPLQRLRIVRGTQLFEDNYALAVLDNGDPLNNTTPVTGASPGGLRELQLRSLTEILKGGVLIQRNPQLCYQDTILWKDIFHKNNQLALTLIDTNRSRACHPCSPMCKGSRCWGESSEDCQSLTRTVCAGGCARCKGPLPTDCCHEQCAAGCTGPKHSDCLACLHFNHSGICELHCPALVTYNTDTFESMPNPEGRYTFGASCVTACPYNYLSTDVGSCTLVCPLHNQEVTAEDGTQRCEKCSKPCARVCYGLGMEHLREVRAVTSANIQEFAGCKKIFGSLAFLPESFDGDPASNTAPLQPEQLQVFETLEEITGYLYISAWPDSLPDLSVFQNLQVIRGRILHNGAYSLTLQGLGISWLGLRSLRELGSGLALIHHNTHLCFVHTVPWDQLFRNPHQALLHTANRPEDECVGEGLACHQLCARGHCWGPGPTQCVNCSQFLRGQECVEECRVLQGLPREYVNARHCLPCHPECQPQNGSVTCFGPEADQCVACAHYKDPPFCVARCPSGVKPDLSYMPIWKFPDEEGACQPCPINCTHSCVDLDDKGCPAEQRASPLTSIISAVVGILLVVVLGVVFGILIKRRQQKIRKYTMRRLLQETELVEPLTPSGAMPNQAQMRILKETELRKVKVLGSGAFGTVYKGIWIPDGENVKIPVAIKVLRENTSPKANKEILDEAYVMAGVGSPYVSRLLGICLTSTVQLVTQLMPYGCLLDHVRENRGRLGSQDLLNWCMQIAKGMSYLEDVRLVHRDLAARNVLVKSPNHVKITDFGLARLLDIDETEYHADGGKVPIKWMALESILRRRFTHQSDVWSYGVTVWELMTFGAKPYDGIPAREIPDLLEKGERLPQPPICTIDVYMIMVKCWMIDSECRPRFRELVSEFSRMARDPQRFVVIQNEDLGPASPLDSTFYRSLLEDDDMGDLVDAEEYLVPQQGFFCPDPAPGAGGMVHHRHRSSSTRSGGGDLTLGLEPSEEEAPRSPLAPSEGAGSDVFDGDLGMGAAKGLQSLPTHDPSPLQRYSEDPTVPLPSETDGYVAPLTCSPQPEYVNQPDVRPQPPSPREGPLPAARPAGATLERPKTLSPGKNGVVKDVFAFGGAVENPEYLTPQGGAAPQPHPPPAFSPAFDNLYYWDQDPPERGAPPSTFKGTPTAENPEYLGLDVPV

T1 sequence (Q13547 whole entry): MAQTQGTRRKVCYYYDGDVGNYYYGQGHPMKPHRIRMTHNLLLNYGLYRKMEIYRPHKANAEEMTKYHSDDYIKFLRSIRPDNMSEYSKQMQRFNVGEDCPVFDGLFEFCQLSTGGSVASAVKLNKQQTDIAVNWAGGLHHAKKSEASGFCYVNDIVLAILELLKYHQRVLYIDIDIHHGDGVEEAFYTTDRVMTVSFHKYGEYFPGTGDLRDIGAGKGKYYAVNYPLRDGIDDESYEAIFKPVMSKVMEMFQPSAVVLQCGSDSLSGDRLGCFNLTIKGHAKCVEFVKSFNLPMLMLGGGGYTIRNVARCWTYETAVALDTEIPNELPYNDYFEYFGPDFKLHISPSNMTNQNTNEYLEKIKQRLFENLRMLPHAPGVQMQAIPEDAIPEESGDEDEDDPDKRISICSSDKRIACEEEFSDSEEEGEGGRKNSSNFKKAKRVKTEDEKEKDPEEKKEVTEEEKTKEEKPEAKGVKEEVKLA
Chain of Vascular endothelial growth factor receptor 2 (P35968 whole entry): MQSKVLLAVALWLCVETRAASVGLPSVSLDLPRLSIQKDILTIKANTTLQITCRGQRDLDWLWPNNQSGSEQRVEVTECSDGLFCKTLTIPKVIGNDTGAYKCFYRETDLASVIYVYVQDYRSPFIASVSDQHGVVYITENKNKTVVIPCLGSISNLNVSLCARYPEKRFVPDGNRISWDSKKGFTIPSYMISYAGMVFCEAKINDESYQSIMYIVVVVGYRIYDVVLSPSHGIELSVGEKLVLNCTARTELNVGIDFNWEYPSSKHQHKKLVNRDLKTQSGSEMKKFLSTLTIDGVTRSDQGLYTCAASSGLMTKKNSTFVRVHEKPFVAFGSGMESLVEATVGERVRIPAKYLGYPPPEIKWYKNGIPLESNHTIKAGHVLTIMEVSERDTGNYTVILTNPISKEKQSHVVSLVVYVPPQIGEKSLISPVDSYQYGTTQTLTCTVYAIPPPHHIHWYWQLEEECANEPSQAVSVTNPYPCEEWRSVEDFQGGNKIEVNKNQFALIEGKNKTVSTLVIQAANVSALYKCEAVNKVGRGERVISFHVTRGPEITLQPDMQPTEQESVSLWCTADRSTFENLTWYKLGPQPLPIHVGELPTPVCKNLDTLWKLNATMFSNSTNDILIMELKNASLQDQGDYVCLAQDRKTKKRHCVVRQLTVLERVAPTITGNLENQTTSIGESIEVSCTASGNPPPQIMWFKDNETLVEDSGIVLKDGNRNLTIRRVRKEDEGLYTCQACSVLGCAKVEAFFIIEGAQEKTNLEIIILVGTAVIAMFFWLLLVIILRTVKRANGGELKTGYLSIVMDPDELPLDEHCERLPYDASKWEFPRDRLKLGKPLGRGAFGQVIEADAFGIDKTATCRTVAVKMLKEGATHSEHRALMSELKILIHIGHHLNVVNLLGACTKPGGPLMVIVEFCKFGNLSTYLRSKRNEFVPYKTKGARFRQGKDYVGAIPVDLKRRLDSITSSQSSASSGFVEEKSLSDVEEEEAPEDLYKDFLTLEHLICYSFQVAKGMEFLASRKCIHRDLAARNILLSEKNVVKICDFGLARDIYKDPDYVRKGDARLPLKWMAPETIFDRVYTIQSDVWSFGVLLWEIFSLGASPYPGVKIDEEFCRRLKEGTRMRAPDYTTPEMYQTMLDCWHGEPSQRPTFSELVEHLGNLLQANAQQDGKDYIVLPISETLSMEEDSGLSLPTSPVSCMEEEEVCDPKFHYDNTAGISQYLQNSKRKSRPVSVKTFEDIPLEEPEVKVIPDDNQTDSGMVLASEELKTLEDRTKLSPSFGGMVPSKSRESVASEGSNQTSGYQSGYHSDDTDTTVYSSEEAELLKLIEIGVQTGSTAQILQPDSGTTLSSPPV
Chain of Histone deacetylase 3 (O15379 whole entry): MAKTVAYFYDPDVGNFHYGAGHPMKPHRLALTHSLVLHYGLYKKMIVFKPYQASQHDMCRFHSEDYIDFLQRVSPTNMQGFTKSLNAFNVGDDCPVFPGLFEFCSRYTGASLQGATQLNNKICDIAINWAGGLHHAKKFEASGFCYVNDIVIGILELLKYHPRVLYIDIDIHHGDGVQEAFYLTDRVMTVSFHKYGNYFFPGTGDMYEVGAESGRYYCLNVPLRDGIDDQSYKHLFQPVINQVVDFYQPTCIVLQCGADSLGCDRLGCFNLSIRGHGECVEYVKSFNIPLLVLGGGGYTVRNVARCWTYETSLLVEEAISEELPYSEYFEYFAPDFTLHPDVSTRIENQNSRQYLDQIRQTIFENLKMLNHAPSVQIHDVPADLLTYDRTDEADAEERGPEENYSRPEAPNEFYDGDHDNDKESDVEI
Chain of Epidermal growth factor receptor (P00533 whole entry): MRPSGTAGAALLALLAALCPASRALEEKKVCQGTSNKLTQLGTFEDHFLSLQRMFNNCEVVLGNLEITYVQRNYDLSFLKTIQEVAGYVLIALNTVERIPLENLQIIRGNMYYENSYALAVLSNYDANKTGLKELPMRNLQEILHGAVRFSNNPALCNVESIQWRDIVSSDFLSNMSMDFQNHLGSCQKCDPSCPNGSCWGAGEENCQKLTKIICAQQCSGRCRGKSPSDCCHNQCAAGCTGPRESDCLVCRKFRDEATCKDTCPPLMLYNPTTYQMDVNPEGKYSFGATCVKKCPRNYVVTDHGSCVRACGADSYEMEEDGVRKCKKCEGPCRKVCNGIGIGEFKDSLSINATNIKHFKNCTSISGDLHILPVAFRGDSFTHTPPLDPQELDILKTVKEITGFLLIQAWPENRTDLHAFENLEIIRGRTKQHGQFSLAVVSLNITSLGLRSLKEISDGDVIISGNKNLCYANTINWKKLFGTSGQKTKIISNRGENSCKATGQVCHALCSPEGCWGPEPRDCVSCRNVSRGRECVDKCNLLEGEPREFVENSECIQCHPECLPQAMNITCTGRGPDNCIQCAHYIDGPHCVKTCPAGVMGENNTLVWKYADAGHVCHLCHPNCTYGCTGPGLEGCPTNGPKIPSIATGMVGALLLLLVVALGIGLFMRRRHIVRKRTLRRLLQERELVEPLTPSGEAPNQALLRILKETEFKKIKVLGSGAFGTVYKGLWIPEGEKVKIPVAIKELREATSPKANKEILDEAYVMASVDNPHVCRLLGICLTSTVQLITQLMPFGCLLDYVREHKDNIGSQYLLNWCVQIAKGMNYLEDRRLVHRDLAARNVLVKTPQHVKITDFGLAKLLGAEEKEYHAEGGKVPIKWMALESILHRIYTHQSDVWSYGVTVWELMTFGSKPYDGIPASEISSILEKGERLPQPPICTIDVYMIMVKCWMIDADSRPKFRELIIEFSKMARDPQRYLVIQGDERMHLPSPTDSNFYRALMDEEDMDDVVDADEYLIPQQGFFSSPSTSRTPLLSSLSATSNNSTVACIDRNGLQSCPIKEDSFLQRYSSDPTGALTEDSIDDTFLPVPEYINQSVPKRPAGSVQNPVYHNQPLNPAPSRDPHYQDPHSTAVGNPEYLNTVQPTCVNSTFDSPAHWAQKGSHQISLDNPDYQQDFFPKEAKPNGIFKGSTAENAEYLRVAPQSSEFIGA

Compound: Cc1ccccc1OS(=O)(=O)C1CC2OC1C(c1ccc(NC(=O)CCCCCCC(=O)NO)cc1)=C2c1ccc(O)cc1 (centres undefined)
- IC50 [1]: > 100000 nM
- IC50 [2]: 22 nM
- IC50 [3]: 7900 nM

Compound: COc1cc(OC)c2c(=O)[nH]c(-c3ccc(OCCCCCCC(=O)NO)cc3)nc2c1
- IC50 [4]: 291 nM
- GI50 [5]: 15500 nM

Compound: COc1cc(OC)c2c(=O)[nH]c(-c3cc(C)c(OCCCCCC(=O)NO)c(C)c3)nc2c1
- IC50 [4]: 291 nM
- GI50 [5]: 15500 nM

Compound: COc1cc(C(=O)NCCC(=O)NO)ccc1Nc1nccc(-c2cn(C)c3ccccc23)n1
- IC50 [4]: < 1000 nM

Compound: Cn1cc(-c2ccnc(Nc3ccc(C(=O)NO)cc3)n2)c2ccccc21
- IC50 [4]: < 1000 nM

Compound: O=C(CCCCCC(=O)Nc1ccc(O)c(C(=O)Nc2ccc(OCc3cccc(F)c3)c(Cl)c2)c1)NO
- IC50 [4]: < 1000 nM

Compound: COc1cc2ncnc(Nc3ccc(Br)cc3)c2cc1OCCCCCC(=O)NO
- IC50 [4]: 2.2 nM
- IC50 [6]: 850 nM
- IC50 [7]: 74 nM

Compound: O=C(CCCCCC(=O)Nc1ccc(O)c(C(=O)Nc2ccc(F)c(F)c2)c1)NO
- IC50 [4]: < 1000 nM

Compound: COc1cc(C(=O)NCCCCC(=O)NO)ccc1Nc1nccc(-c2cn(C)c3ccccc23)n1
- IC50 [4]: < 1000 nM

Compound: COc1cc(C(=O)NCCCC(=O)NO)ccc1Nc1nccc(-c2cn(C)c3ccccc23)n1
- IC50 [4]: < 1000 nM

Compound: Cc1noc(C)c1-c1ccc2c(c1)c(CCc1ccccc1)cn2CCCCCCC(=O)NO
- IC50 [4]: 291 nM
- GI50 [5]: 15500 nM

Compound: COc1cc(OC)c2c(=O)[nH]c(-c3ccc(OCCCCCC(=O)NO)cc3)nc2c1
- IC50 [4]: 291 nM
- GI50 [5]: 15500 nM

Compound: O=C(CCCCCC(=O)Nc1ccc(O)c(C(=O)Nc2ccc(F)c(Cl)c2)c1)NO
- IC50 [4]: < 1000 nM

Compound: COc1cc(OC)c2c(=O)[nH]c(-c3ccc(OC/C=C/C(=O)NO)cc3)nc2c1
- IC50 [4]: 291 nM
- GI50 [5]: 15500 nM

Compound: Cc1noc(C)c1-c1ccc2c(c1)c(Cc1ccc(F)cc1)cn2CCCCCCC(=O)NO
- IC50 [8]: 670 nM
- IC50 [2]: 150 nM

Compound: Cn1cc(-c2ccnc(Nc3ccc(C(=O)NCCCCC(=O)NO)cc3)n2)c2ccccc21
- IC50 [4]: < 1000 nM

Compound: O=C(CCCCCC(=O)Nc1ccc(O)c(C(=O)Nc2ccccc2)c1)NO
- IC50 [4]: < 1000 nM

Compound: C#Cc1cccc(NC(=O)c2cc(NC(=O)CCCCCCC(=O)NO)ccc2O)c1
- IC50 [4]: < 1000 nM

Compound: COc1cc(OC)c2c(=O)[nH]c(-c3ccc(OCCCCC(=O)NO)cc3)nc2c1
- IC50 [4]: 291 nM
- GI50 [5]: 15500 nM

Compound: C#Cc1cccc(Nc2ncnc3cc(OCCOC)c(OCCOC)cc23)c1 [ERLOTINIB]
- IC50 [9]: 1410 nM
- IC50 [10]: 2700 nM
- IC50 [11]: 11800 nM

Compound: Cc1noc(C)c1-c1ccc2c(c1)c(CCc1ccccc1)cn2CCCCCC(=O)NO
- IC50 [4]: 291 nM
- GI50 [5]: 15500 nM

Compound: COc1cc(OC)c2c(=O)[nH]c(-c3ccc(OCCCC(=O)NO)cc3)nc2c1
- IC50 [12]: 1520 nM
- IC50 [4]: 32 nM
- GI50 [5]: 15500 nM
- IC50 [13]: 1090 nM
- IC50 [14]: 225 nM
- IC50 [15]: 1670 nM

Compound: COCCOc1cc2ncnc(Nc3ccc(/C=C/C(=O)NO)cc3)c2cc1OCCOC
- IC50 [16]: 180 nM
- IC50 [17]: 160 nM
- inhibition [18]: 70%
- IC50 [19]: 560 nM
- inhibition [20]: 84%

Compound: Cc1ccccc1Cc1cn(CCCCCC(=O)NO)c2ccc(-c3c(C)noc3C)cc12
- IC50 [4]: 291 nM
- GI50 [5]: 15500 nM

Compound: COc1cc(OC)c2c(=O)[nH]c(-c3ccc(OCc4ccc(/C=C/C(=O)NO)cc4)cc3)nc2c1
- IC50 [4]: 291 nM
- GI50 [5]: 15500 nM

Compound: C#Cc1cccc(NC(=O)c2cc(NC(=O)CCCCCC(=O)NO)c(OC)cc2O)c1
- IC50 [4]: < 1000 nM

Compound: Cc1sc2c(c1C)C(c1ccc(Cl)cc1)=N[C@@H](CC(=O)OC(C)(C)C)c1nnc(C)n1-2
- IC50 [4]: 291 nM
- GI50 [5]: 15500 nM

Compound: C#Cc1cccc(NC(=O)c2cc(NC(=O)CCCCCC(=O)NO)ccc2O)c1
- IC50 [4]: < 1000 nM

Compound: COc1cc(C(=O)NCCCCCCC(=O)NO)ccc1Nc1nccc(-c2cn(C)c3ccccc23)n1
- IC50 [4]: < 1000 nM

Compound: O=C(CCCCCC(=O)Nc1ccc(O)c(C(=O)Nc2ccc(Cl)c(Cl)c2)c1)NO
- IC50 [4]: < 1000 nM

Compound: COc1cc2/c(=N/c3ccc(Br)cc3F)nc[nH]c2cc1OCC1CCN(C)CC1 [VANDETANIB]
- IC50 [6]: 18500 nM

Compound: Cc1ccc(Cc2cn(CCCCCCC(=O)NO)c3ccc(-c4c(C)noc4C)cc23)cc1
- IC50 [4]: 291 nM
- GI50 [5]: 15500 nM
